The numbers were not newly measured in US4127529A, “Novel eicosapeptides, intermediates therefor and pharmaceutical compositions and methods employing said eicosapeptides” (priority 1977, dated 1978), which cites them from elsewhere.

The conditions of data set [1]: injected directly into the brain of the rat.
The subject of data set [2] is brain opiate receptor sites. As to conditions: natural peptide.

For “H-Tyr-Gly-Gly-Phe-Met-OH [methionine enkephalin]”, the analgesic activity result in data set [1] is recorded as “only weak analgesic agent of short duration”. Moreover, the “binding to partially purified brain opiate receptor sites” value in data set [2] is “binds stereo-specifically”.
